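A five-concentration, 48-hour dose response in 96-well plates underlies each endpoint, interpolated linearly between surrounding concentrations. The concentration for full growth arrest is given as TGI.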
Assays:
Experiment in all cases: growth of human tumour cells (NCI), 48 h
786-0 renal = system: 786-0 renal
IGROV1 ovarian = system: IGROV1 ovarian
K-562 leukemia = system: K-562 leukemia
MDA-MB-435 = system: MDA-MB-435
MDA-N = system: MDA-N
NCI-H23 lung = system: NCI-H23 lung
NCI-H522 lung = system: NCI-H522 lung
OVCAR-8 ovarian = system: OVCAR-8 ovarian
SF-268 CNS = system: SF-268 CNS
SK-MEL-2 melanoma = system: SK-MEL-2 melanoma
SK-MEL-28 melanoma = system: SK-MEL-28 melanoma
SK-MEL-5 melanoma = system: SK-MEL-5 melanoma
SK-OV-3 ovarian = system: SK-OV-3 ovarian
SN12C renal = system: SN12C renal
SNB-19 CNS = system: SNB-19 CNS
U251 CNS = system: U251 CNS
MDA-MB-231 breast = system: MDA-MB-231 breast
MOLT-4 leukemia = system: MOLT-4 leukemia
NCI-H226 lung = system: NCI-H226 lung
RXF 393 renal = system: RXF 393 renal

SMILES | TGI (786-0 renal) [µM] | TGI (IGROV1 ovarian) [µM] | TGI (K-562 leukemia) [µM] | TGI (MDA-MB-435) [µM] | TGI (MDA-N) [µM] | TGI (NCI-H23 lung) [µM] | TGI (NCI-H522 lung) [µM] | TGI (OVCAR-8 ovarian) [µM] | TGI (SF-268 CNS) [µM] | TGI (SK-MEL-2 melanoma) [µM] | TGI (SK-MEL-28 melanoma) [µM] | TGI (SK-MEL-5 melanoma) [µM] | TGI (SK-OV-3 ovarian) [µM] | TGI (SN12C renal) [µM] | TGI (SNB-19 CNS) [µM] | TGI (U251 CNS) [µM] | TGI (MDA-MB-231 breast) [µM] | TGI (MOLT-4 leukemia) [µM] | TGI (NCI-H226 lung) [µM] | TGI (RXF 393 renal) [µM]
O=P1(O)C=CC2(CCCC2)O1 | > 100 | > 100 | > 100 | > 100 | > 100 | > 100 | > 100 | > 100 | > 100 | > 100 | > 100 | > 100 | > 100 | > 100 | > 100 | > 100 | – | – | – | –
CCOC(=O)c1ccc(Nc2cnc3cc(C(F)(F)F)ccc3n2)cc1 | > 100 | > 100 | > 100 | > 100 | > 100 | > 100 | > 100 | > 100 | > 100 | – | > 100 | > 100 | > 100 | > 100 | – | > 100 | > 100 | > 100 | > 100 | –
COc1cc(Cc2cc3c(c(C(=O)O)c2Br)OCO3)cc(OC)c1OC | > 100 | > 100 | > 100 | > 100 | 67 | > 100 | – | > 100 | – | > 100 | > 100 | > 100 | > 100 | > 100 | > 100 | > 100 | > 100 | > 100 | > 100 | –
COc1cc(-c2cn(S(=O)(=O)c3ccc(C)cc3)c3ccccc23)nc(-c2cn(S(=O)(=O)c3ccc(C)cc3)c3ccccc23)n1 | > 100 | – | > 100 | 0.47 | 1.88 | 0.927 | 0.506 | > 100 | – | > 100 | > 55.7 | – | > 100 | > 100 | 32.1 | 13.8 | – | > 22.5 | > 100 | > 100
CCOC(=O)c1cnn2c1ncc1c(=O)n(NC(N)=O)ccc12 | > 100 | > 100 | – | > 100 | > 100 | > 100 | > 100 | > 100 | > 100 | > 100 | > 100 | > 100 | > 100 | > 100 | > 100 | > 100 | > 100 | > 100 | > 100 | –

From PubChem BioAssay (NCI)
